Measurements published in patent US20260209247A1, “Substituted Tricyclic Compounds” (Lupin Limited, priority 2019, published 2026).

How the values were obtained:
[1] = system: pERK after EGF stimulation in DLD1 cells; test: ERK phosphorylation assay (alphascreen pERK); type: cell-based; conditions: Homo sapiens, DLD-1, 2 h compound, 200 ng/ml hEGF for 5 minutes, read-out: ERK phosphorylation inhibition IC50
Summary of the method: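 DLD1 cells pretreated with test compounds for 2 h, then stimulated with 200 ng/ml hEGF for 5 min. Lysates assayed by AlphaScreen SureFire for ERK1/2 p-T202/Y204, read after 2 h at 25–28 °C. % inhibition relative to the stimulated-minus-unstimulated vehicle window.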

[2] = target: T1, nucleotide exchange on hKRASG12C mediated by hSOS1 (Homo sapiens, UniProt Q07889); test: Guanine nucleotide exchange assay (GNEA, HTRF); type: biochemical; conditions: HIS-hSOS1 564-1049aa mediated GTP loading onto GST-hKRASG12C 1-169aa, read-out: Guanine nucleotide exchange inhibition IC50
T1 construct: HIS-hSOS1, 564-1049aa mediated GTP loading onto GST-hKRASG12C; His (N); made in house
T1 sequence (Q07889 564-1049): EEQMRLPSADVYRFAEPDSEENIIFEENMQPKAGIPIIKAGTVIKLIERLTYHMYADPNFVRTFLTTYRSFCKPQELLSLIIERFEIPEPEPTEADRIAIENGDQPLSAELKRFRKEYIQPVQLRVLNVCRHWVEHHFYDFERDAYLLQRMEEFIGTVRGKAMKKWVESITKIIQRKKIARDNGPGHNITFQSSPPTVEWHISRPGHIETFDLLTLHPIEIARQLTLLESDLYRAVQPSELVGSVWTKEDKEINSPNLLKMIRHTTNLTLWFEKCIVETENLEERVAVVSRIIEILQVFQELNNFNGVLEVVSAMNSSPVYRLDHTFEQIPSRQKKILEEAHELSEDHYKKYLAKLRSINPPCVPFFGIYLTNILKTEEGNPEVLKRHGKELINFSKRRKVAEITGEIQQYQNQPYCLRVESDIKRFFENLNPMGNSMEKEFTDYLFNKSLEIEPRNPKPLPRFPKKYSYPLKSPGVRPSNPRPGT
Experimental: Example-154: Guanine nucleotide exchange assay (GNEA) GNEA assay was conducted to evaluate the effects of compounds on the nucleotide exchange on hKRASG12C mediated by hSOS1. Inhibitory effect of compounds on HIS-hSOS1, 564-1049aa mediated GTP loading onto GST-hKRASG12C, 1-169aa both expressed and purified in-house was assessed using HTRF detection technology in biochemical assay. Compounds were pre-incubated with hSOS1 working solution containing 10-50 nM hSOS1 and 200 nM EDA-GTP-DY-647P1 (Custom manufactured, Jena Biosciences) per well of a 384 well plate (Perkin Elmer, Cat #6007290) for 10 min at 20° C. in the assay buffer containing 10 mM HEPES, pH 7.4, 150 mM NaCl, 5 mM MgCl2, 1 mM DTT, 0.05% BSA fraction V and 0.0025% Igepal. Reaction was initiated by adding working solution of hKRASG12C containing 25-125 nM hKRASG12C and MAb Anti-GST-Tb (#61GSTTLA, Cisbio BioAssays) in assay buffer. Total assay volume was 15 μL. Reaction was continued for 30-60 min at 20° C. HTRF signal was recorded in PHERAStar microplate reader. Ratio of signal obtained at 665 nm and 620 nm was used to compute the percent inhibition of compound as follows.

[3] = target: T2, protein-protein interaction between hSOS1 and hKRASG12C (Homo sapiens, UniProt Q07889); test: KRAS-SOS1 interaction assay (HTRF); type: binding; conditions: GST-hSOS1 564-1049aa, HIS-hKRASG12C, read-out: KRAS-SOS1 Interaction inhibition IC50
T2 construct: GST-hSOS1, 564-1049aa expressed and purified in-house
T2 sequence (Q07889 564-1049): T1 sequence (Q07889 564-1049)
Experimental: Interaction assay was conducted to evaluate the ability of the compounds to disrupt the protein-protein interactions between hSOS1 and hKRASG12C. Inhibitory effect of compounds on GST-hSOS1, 564-1049aa expressed and purified in-house and HIS-hKRASG12C (R06-32DH, SignalChem) interaction was assessed using HTRF detection technology in biochemical assay. Compounds were pre-incubated with 10-50 nM working solution of hSOS1 per well of a 384 well plate (Perkin Elmer, Cat #6007290) for 10 min at 20° C. in the assay buffer containing 5 mM HEPES, pH 7.4, 150 mM NaCl, 10 mM EDTA, 1 mM DTT, 0.05% BSA fraction V and 0.0025% Igepal. Reaction was initiated by adding 100-300 nM working solution of hKRASG12C in assay buffer. Total assay volume was 15 μL. Reaction was continued for 30-60 min at 20° C. Then detection solution containing MAb Anti-GST-d2 (#61GSTDLA, Cisbio BioAssays) and MAb Anti-HIS-Tb (#61HISTLA, Cisbio BioAssays), all prepared in HTRF detection buffer (#61DB10RDF, Cisbio BioAssays) was added and further incubated for 30-60 min at 20° C. HTRF signal was recorded in PHERAStar microplate reader. Ratio of signal obtained at 665 nm and 620 nm was used to compute the percent inhibition of compound utilizing the following formula: […]

Cc1nc(N[C@H](C)c2cccc(C(F)(F)CO)c2F)c2cc3c(cc2n1)O[C@@H](C)C(=O)N3C (single isomer, unassigned) [Compound 30a]
IC50 [1]: 1 to 200 nM
IC50 [2]: 1 to 30 nM
IC50 [3]: 1 to 10 nM

Cc1nc(N[C@H](C)c2cccc(C(F)(F)CO)c2F)c2cc3c(cc2n1)OC(C)C(=O)N3C (single isomer, unassigned) [Compound 30b]
IC50 [1]: 1 to 200 nM
IC50 [2]: 1 to 30 nM
IC50 [3]: 1 to 10 nM

Cc1nc(N[C@H](C)c2cccc(C(F)(F)C(C)(C)O)c2F)c2cc3c(cc2n1)O[C@@H](C)C(=O)N3C (single isomer, unassigned) [Compound 31a]
IC50 [1]: 1 to 200 nM
IC50 [2]: 1 to 30 nM
IC50 [3]: 1 to 10 nM

Cc1nc(N[C@H](C)c2cccc(C(F)(F)C(C)(C)O)c2F)c2cc3c(cc2n1)OC(C)C(=O)N3C (single isomer, unassigned) [Compound 31b]
IC50 [1]: 1 to 200 nM
IC50 [2]: 1 to 30 nM
IC50 [3]: 1 to 10 nM

Cc1nc(N[C@H](C)c2cccc(C(F)(F)C(C)(C)O)c2F)c2cc3c(cc2n1)OC(C(C)C)C(=O)N3C (single isomer, unassigned) [Compound 32b]
IC50 [1]: 1 to 200 nM
IC50 [2]: 1 to 30 nM
IC50 [3]: 1 to 10 nM

Cc1nc(N[C@H](C)c2cccc(C(F)(F)CO)c2F)c2cc3c(cc2n1)OC(C)CN3C (single isomer, unassigned) [Compound 36b]
IC50 [1]: 1 to 200 nM
IC50 [2]: 1 to 30 nM
IC50 [3]: 1 to 10 nM

COCC(C)(O)C(F)(F)c1cccc([C@@H](C)Nc2nc(C)nc3cc4c(cc23)N(C)C(=O)C(C)(C)O4)c1F (single isomer, unassigned) [Compound 53b]
IC50 [1]: 1 to 200 nM
IC50 [2]: 1 to 30 nM
IC50 [3]: 11 to 25 nM

Cc1nc(NC(C)c2cccc(C(F)(F)C(C)(C)O)c2)c2cc3c(cc2n1)C(C)(C)C(=O)N3C (single isomer, unassigned) [Compound 73, (R/S)-4-((1-(3-(1,1-difluoro-2-hydroxy-2-methylpropyl)phenyl)ethyl)amino)-2,6,8,8-tetramethyl-6,8-dihydro-7H-pyrrolo[2,3-g]quinazolin-7-one]
IC50 [1]: 1 to 200 nM
IC50 [2]: 1 to 30 nM
IC50 [3]: 1 to 10 nM

Cc1nc(N[C@H](C)c2cccc(C(F)(F)C(C)(O)CO)c2F)c2cc3c(cc2n1)C(C)(C)C(=O)N3C (single isomer, unassigned) [Compound 76a]
IC50 [1]: 1 to 200 nM
IC50 [2]: 1 to 30 nM
IC50 [3]: 1 to 10 nM

CC[C@]1(C)C(=O)N(C)c2cc3nc(C)nc(N[C@H](C)c4cccc(C(F)(F)C(C)(C)O)c4F)c3cc21 (single isomer, unassigned) [Compound 93a]
IC50 [1]: 1 to 200 nM
IC50 [2]: 31 to 130 nM
IC50 [3]: 1 to 10 nM

CCC1(C)C(=O)N(C)c2cc3nc(C)nc(N[C@H](C)c4cccc(C(F)(F)C(C)(C)O)c4F)c3cc21 (single isomer, unassigned) [Compound 93b]
IC50 [1]: 1 to 200 nM
IC50 [2]: 31 to 130 nM
IC50 [3]: 1 to 10 nM

COCC1(C)C(=O)N(C)c2cc3nc(C)nc(N[C@H](C)c4cccc(C(F)(F)C(C)(C)O)c4F)c3cc21 (single isomer, unassigned) [Compound 94a]
IC50 [1]: 1 to 200 nM
IC50 [2]: 1 to 30 nM
IC50 [3]: 1 to 10 nM

COCC1(C)C(=O)N(C)c2cc3c(N[C@H](C)c4cccc(C(F)(F)C(C)(C)O)c4F)nc(C)nc3cc21 (single isomer, unassigned) [Compound 98a]
IC50 [1]: 1 to 200 nM
IC50 [2]: 1 to 30 nM
IC50 [3]: 1 to 10 nM

CO[C@]1(C)C(=O)N(C)c2cc3c(N[C@H](C)c4cccc(C(F)(F)C(C)(C)O)c4F)nc(C)nc3cc21 (single isomer, unassigned) [Compound 101a]
IC50 [1]: 1 to 200 nM
IC50 [2]: 31 to 130 nM
IC50 [3]: 1 to 10 nM

CCOC1(C)C(=O)N(C)c2cc3c(N[C@H](C)c4cccc(C(F)(F)C(C)(C)O)c4F)nc(C)nc3cc21 (single isomer, unassigned) [Compound 121a]
IC50 [1]: 1 to 200 nM
IC50 [2]: 31 to 130 nM
IC50 [3]: 1 to 10 nM

COCC[C@]1(C)C(=O)N(C)c2cc3c(N[C@H](C)c4cccc(C(F)(F)C(C)(C)O)c4F)nc(C)nc3cc21 (single isomer, unassigned) [Compound 123a]
IC50 [1]: 1 to 200 nM
IC50 [2]: 1 to 30 nM
IC50 [3]: 1 to 10 nM

COC[C@](C)(O)C(F)(F)c1cccc([C@@H](C)Nc2nc(C)nc3cc4c(cc23)N(C)C(=O)C4(C)C)c1F (single isomer, unassigned) [Compound 127b]
IC50 [1]: 1 to 200 nM
IC50 [2]: 1 to 30 nM
IC50 [3]: 1 to 10 nM

Cc1nc(N[C@H](C)c2cccc(C(F)(F)C(C)(C)O)c2F)c2cc3c(cc2n1)[C@]1(CCOC1)C(=O)N3C (single isomer, unassigned) [Compound 128a]
IC50 [1]: 1 to 200 nM
IC50 [2]: 1 to 30 nM
IC50 [3]: 1 to 10 nM

Cc1nc(N[C@H](C)c2cccc(C(F)(F)C(C)(C)O)c2F)c2cc3c(cc2n1)C1(CCOC1)C(=O)N3C (single isomer, unassigned) [Compound 128b]
IC50 [1]: 1 to 200 nM
IC50 [2]: 31 to 130 nM
IC50 [3]: 1 to 10 nM

Cc1nc(N[C@H](C)c2cccc(C(F)(F)C(C)(O)CN(C)C)c2F)c2cc3c(cc2n1)C(C)(C)C(=O)N3C (single isomer, unassigned) [Compound 129a]
IC50 [1]: 1 to 200 nM
IC50 [2]: 1 to 30 nM
IC50 [3]: 1 to 10 nM

CNCC(C)(O)C(F)(F)c1cccc([C@@H](C)Nc2nc(C)nc3cc4c(cc23)N(C)C(=O)C4(C)C)c1F (single isomer, unassigned) [Compound 130a]
IC50 [1]: 1 to 200 nM
IC50 [2]: 1 to 30 nM
IC50 [3]: 1 to 10 nM

COCC[C@@]1(OC)C(=O)N(C)c2cc3c(N[C@H](C)c4cccc(C(F)(F)C(C)(C)O)c4F)nc(C)nc3cc21 (single isomer, unassigned) [Compound 132b]
IC50 [1]: 1 to 200 nM
IC50 [2]: 1 to 30 nM
IC50 [3]: 1 to 10 nM

COC1(C)C(=O)N(C)c2cc3c(N[C@H](C)c4cccc(C(F)(F)C(C)(O)CN(C)C)c4F)nc(C)nc3cc21 (single isomer, unassigned) [Compound 135]
IC50 [1]: 1 to 200 nM
IC50 [2]: 1 to 30 nM
IC50 [3]: 1 to 10 nM

Cc1nc(N[C@H](C)c2cc(N)cc(C(F)(F)F)c2)c2cc3c(cc2n1)OCC(=O)N3C [Compound 1, (R)-4-((1-(3-amino-5-(trifluoromethyl)phenyl)ethyl)amino)-2,6-dimethyl-6H-[1,4]oxazino[3,2-g]quinazolin-7(8H)-one]
IC50 [1]: 1 to 200 nM
IC50 [2]: 31 to 130 nM
IC50 [3]: 1 to 10 nM

Cc1nc(N[C@H](C)c2cccc(C(F)(F)CO)c2F)c2cc3c(cc2n1)OCC(=O)N3C [Compound 2, (R)-4-((1-(3-(1,1-difluoro-2-hydroxyethyl)-2-fluorophenyl)ethyl)amino)-2,6-dimethyl-6H-[1,4]oxazino[3,2-g]quinazolin-7(8H)-one]
IC50 [1]: 1 to 200 nM
IC50 [2]: 1 to 30 nM
IC50 [3]: 1 to 10 nM
